Source: ChEMBL document CHEMBL4808216, “Gut-Restricted Selective Cyclooxygenase-2 (COX-2) Inhibitors for Chemoprevention of Colorectal Cancer” (J Med Chem, 2021)
Converted amounts (≈) assume the structure as drawn.

Tests used:
[1] = target: T1, Prostaglandin G/H synthase 2 (Homo sapiens, UniProt P35354); experiment: Inhibition of COX2 (unknown origin) expressed in HEK293 TRex cells assessed as reduction in PGE2 production using arachidonic acid as substrate preincubated for 60 mins followed by substrate addition for 1 hr in presence of 10% FBS by RapidFire High-Throughput Mass Spectrometry; type: cell-based, HEK293-T-REx
T1 sequence (P35354 whole entry): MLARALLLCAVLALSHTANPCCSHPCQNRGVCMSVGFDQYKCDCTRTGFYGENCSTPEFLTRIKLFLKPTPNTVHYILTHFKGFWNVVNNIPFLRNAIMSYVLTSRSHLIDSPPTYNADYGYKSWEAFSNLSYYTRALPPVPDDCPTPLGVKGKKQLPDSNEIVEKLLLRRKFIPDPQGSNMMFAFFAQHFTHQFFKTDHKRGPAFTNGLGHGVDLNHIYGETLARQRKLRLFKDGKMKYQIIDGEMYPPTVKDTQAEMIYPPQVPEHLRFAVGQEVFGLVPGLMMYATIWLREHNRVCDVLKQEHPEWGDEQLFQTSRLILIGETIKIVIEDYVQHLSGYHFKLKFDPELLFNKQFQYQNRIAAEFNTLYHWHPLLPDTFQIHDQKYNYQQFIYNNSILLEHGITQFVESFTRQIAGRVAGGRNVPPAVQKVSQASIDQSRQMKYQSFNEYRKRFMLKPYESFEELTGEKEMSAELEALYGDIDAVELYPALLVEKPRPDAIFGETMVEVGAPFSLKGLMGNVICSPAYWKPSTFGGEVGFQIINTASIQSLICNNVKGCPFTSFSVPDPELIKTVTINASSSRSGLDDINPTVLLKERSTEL

[2] = target: T2, Prostaglandin G/H synthase 1 (Homo sapiens, UniProt P23219); experiment: Inhibition of COX1 (unknown origin) expressed in HEK293 TRex cells assessed as reduction in PGE2 production using arachidonic acid as substrate preincubated for 60 mins followed by substrate addition for 1 hr in presence of 10% FBS by RapidFire High-Throughput Mass Spectrometry; type: ADME, cell-based, HEK293-T-REx
[3] = Clearance in C57BL/6J mouse at 2 mg/kg, iv measured after 0.08 to 24 hrs; type: ADME, organism-based; settings: in vivo, time 0.08-24 hrs
[4] = Drug concentration in C57BL/6J mouse colon at 10 mg/kg, po administered as cassette dose measured at 4 hrs by LC/MS/MS analysis; type: ADME, organism-based; settings: read-out: Ct
[5] = Drug concentration in C57BL/6J mouse plasma at 10 mg/kg, po administered as cassette dose measured at 4 hrs by LC/MS/MS analysis; type: ADME, organism-based
[6] = Ratio of drug concentration in C57BL/6J mouse colon to plasma at 10 mg/kg, po measured after 4 hr by liquid chromatographic triple-quadrupole mass spectrometric method; type: ADME, organism-based; settings: for Kp at 4 h: C57BL/6J, colon / plasma; for Ratio: other tissue, 10 mg/kg, 4 h
[7] = system: HEK293; experiment: Selectivity ratio of IC50 for COX1 (unknown origin) expressed in HEK293 TRex cells assessed as reduction in PGE2 production to IC50 for COX2 (unknown origin) expressed in HEK293 TRex cells assessed as reduction in PGE2 production; type: cell-based; settings: Homo sapiens
[8] = target: T1, Prostaglandin G/H synthase 2; experiment: Inhibition of human recombinant COX-2 assessed as reduction in peroxidase activity using arachidonic acid as substrate preincubated for 60 mins followed by substrate addition for 2 secs by ADPH based fluorometric analysis
[9] = target: T2, Prostaglandin G/H synthase 1; experiment: Inhibition of human recombinant COX-1 assessed as reduction in peroxidase activity using arachidonic acid as substrate preincubated for 60 mins followed by substrate addition for 2 secs by ADPH based fluorometric analysis; type: ADME
[10] = Half life in human liver microsomes; type: ADME, Microsome
[11] = Half life in mouse liver microsomes; type: ADME, Microsome
[12] = Half life in human hepatocytes; type: ADME, cell-based, Hepatocyte
[13] = Half life in mouse hepatocytes; type: ADME, cell-based, Hepatocyte
[14] = Volume of distribution at steady state in C57BL/6J mouse at 2 mg/kg, iv measured after 0.08 to 24 hrs; type: ADME, organism-based; settings: C57BL/6J, in vivo, time 0.08-24 hrs, read-out: Vdss
[15] = Half life in C57BL/6J mouse at 2 mg/kg, iv measured after 0.08 to 24 hrs; type: ADME, organism-based; settings: C57BL/6J, in vivo, time 0.08-24 hrs
[16] = Tmax in C57BL/6J mouse at 10 mg/kg, po administered as cassette dose measured at 4 hrs by liquid chromatographic triple-quadrupole mass spectrometric method; type: ADME, organism-based; settings: in vivo
[17] = Protein binding in human plasma assessed as unbound fraction; type: ADME, cell-free
[18] = Protein binding in human colon assessed as unbound fraction; type: ADME, tissue-based
[19] = Equilibrium solubility of compound in FASSIF at pH 6.5; type: physicochemical
[20] = Drug concentration in C57BL/6J mouse portal vein plasma at 10 mg/kg, po administered as cassette dose measured at 4 hrs by LC/MS/MS analysis; type: ADME, organism-based
[21] = system: Mus musculus; experiment: Chemo-protective activity in C57BL/6J mouse model of spontaneous GI-tract tumor Apc-min assessed as 18F-FDG uptake in ileum at 300 mg/kg, po incorporated into chow diet administered daily for 2 weeks and measured after 14 days by ex vivo PET imaging analysis relative to control; type: functional
[22] = system: Mus musculus; experiment: Antitumor activity in C57BL/6J mouse model of spontaneous GI-tract tumor Apc-min assessed as reduction in total ileum polyp area at 300 mg/kg, po administered as suspension for 10 to 12 weeks; type: functional; settings: time 10-12 weeks, read-out: TGI
[23] = system: Mus musculus; experiment: Antitumor activity in C57BL/6J mouse model of spontaneous GI-tract tumor Apc-min assessed as mouse survival at 100 mg/kg, po administered daily as suspension and measured at day 82 by Kaplan-Meier method; type: functional
[24] = target: T2, Prostaglandin G/H synthase 1; experiment: Inhibition of COX1 in human whole blood assessed as reduction in calcium ionophore-stimulated TXB2 production incubated for 1 hr by ELISA; type: tissue-based
[25] = target: T3, Prostaglandin G/H synthase 2 (Homo sapiens) (UniProt P35354)
T3 sequence (whole entry): T1 sequence (P35354 whole entry)
Description: Protein occupancy at human recombinant COX-2 assessed as dissociation half life

[26] = in vivo; settings: C57BL/6J, mouse, colon / portal vein plasma, po, 10 mg/kg
Description: Ratio of drug concentration in C57BL/6J mouse colon to portal vein plasma at 10 mg/kg, po measured after 4 hr by liquid chromatographic triple-quadrupole mass spectrometric method

[27] = target: T1, Prostaglandin G/H synthase 2; experiment: Inhibition of human recombinant COX-2 using arachidonic acid as substrate preincubated for 60 mins followed by substrate addition for 2 secs by ADPH based fluorometric analysis
[28] = target: T1, Prostaglandin G/H synthase 2; experiment: Inhibition of COX2 in human whole blood assessed as reduction in LPS stimulated PGE2 production incubated for 1 hr by ELISA; type: tissue-based
[29] = organism: Homo sapiens; experiment: Selectivity ratio of IC50 for COX1 in human whole blood assessed as reduction in calcium ionophore-stimulated TXB2 production to IC50 for COX2 in human whole blood assessed as reduction in LPS stimulated PGE2 production; type: tissue-based

T2 sequence (P23219 whole entry): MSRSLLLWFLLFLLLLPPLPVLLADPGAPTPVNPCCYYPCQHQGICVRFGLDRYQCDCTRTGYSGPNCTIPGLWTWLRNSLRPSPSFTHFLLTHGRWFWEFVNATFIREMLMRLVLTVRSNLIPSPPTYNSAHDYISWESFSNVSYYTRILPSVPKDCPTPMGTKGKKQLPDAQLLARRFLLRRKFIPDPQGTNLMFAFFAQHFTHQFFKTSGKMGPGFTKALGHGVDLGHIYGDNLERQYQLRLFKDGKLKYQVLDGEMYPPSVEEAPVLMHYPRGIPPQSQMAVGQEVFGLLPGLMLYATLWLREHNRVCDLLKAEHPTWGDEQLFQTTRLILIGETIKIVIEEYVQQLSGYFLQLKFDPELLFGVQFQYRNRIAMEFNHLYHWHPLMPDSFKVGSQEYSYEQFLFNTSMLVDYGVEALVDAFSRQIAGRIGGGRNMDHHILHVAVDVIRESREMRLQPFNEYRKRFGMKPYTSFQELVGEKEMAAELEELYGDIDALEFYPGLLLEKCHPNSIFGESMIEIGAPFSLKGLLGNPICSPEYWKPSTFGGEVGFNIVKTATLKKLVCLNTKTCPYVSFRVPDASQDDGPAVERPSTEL

SMILES | IC50 [1] [µM] | IC50 [2] [µM] | clearance [3] [mL/min/kg] | concentration at 4 h [4] [ng/g] | concentration at 4 h [5] [ng/mL] | Kp at 4 h [6] | IC50 [8] [µM] | IC50 [9] [µM] | other results
CCCCOc1nc(-c2ccc(F)cc2)c(-c2ccc(S(C)(=O)=O)cc2)cc1CO | 0.049 | 0.511 | 32.2 | 1940 | 75.9 | 24.9 | – | – | Ratio IC50 [7]: 10
COCCOc1nc(OCC(C)(C)O)c(-c2ccc(S(C)(=O)=O)cc2)cc1CO | 2.95 | > 50 | – | – | – | – | 18.2 | > 50 | –
CC(C)(O)COc1ncc(CO)cc1-c1ccc(S(C)(=O)=O)cc1 | > 50 | > 50 | – | – | – | – | > 50 | > 50 | –
Cc1cnc(OCC(C)(C)O)c(-c2ccc(S(C)(=O)=O)cc2)c1 | 1.89 | > 50 | – | – | – | – | 6.36 | > 50 | –
Cc1ccc(-c2cc(C(F)(F)F)nn2-c2ccc(S(N)(=O)=O)cc2)cc1 [CELECOXIB] | – | – | 10.5 | 9460 | 2550 | – | – | – | half-life [10]: 1.12 h; half-life [11]: 0.988 h; half-life [12]: 0.957 h; half-life [13]: 0.552 h; Vd [14]: 0.94 L/kg; half-life [15]: 1.27 h; Tmax [16]: 0.25 h; Fu [17]: 0.3%; fraction unbound [18]: 0.0031; solubility thermodynamic [19]: 134 µM (≈ 50.9 µg/mL); concentration at 4 h [20]: 2150 ng/mL; Activity [21]: 31.4%; inhibition in vivo at 300 mg/kg [22]: 65.9%; Survival [23]: >82 days
CCCCOc1nc(OCC2(C)COC2)c(-c2ccc(S(C)(=O)=O)cc2)cc1CO | 0.21 | > 50 | 89.3 | 1850 | 2 | – | – | – | Ratio [6]: 1040
Cc1ccc(-c2ncc(Cl)cc2-c2ccc(S(C)(=O)=O)cc2)cn1 [ETORICOXIB] | – | > 50 | 41.3 | 55.7 | 36.4 | 1.5 | – | > 50 | half-life [10]: > 3.07 h; half-life [11]: 0.897 h; half-life [12]: > 6.18 h; half-life [13]: 0.487 h; Vd [14]: 1.27 L/kg; half-life [15]: 0.78 h; Tmax [16]: 0.25 h; IC50 [24]: 93.8 µM; fraction unbound [17]: 0.114; solubility thermodynamic [19]: 358 µM (≈ 128 µg/mL); concentration at 4 h [20]: 48.6 ng/mL; Activity [21]: 43.5%; Survival [23]: >82 days; T1/2 [25]: 6.1 h; Kp at 4 h [26]: 1.2
CC(C)(O)COc1ncc(C(F)(F)F)cc1-c1ccc(S(C)(=O)=O)cc1 | 1.5 | > 50 | 0.54 | 8400 | 9800 | 0.9 | 0.39 | > 50 | half-life [10]: > 3.07 h; half-life [11]: > 3.07 h; half-life [12]: > 6.18 h; half-life [13]: > 6.18 h; Vd [14]: 1.55 L/kg; half-life [15]: 38.5 h; Tmax [16]: 3 h
CCCCOc1nc(OCC(C)(C)O)c(-c2ccc(S(N)(=O)=O)cn2)cc1CO | 0.23 | > 50 | – | 12000 | 5.5 | – | 0.45 | > 50 | Ratio [6]: 2179; Ki [27]: 0.019 µM; IC50 [28]: 7.23 µM; IC50 [24]: > 60 µM; fraction unbound [17]: 0.002; fraction unbound [18]: 0.075; solubility thermodynamic [19]: 63.1 µM (≈ 26.8 µg/mL); concentration at 4 h [20]: 7.1 ng/mL; Activity [21]: 54.8%; inhibition in vivo at 300 mg/kg [22]: 25%; T1/2 [25]: 23 h

Further lines, with some results ahead:

IC50 [1] [µM] | IC50 [2] [µM] | clearance [3] [mL/min/kg] | concentration at 4 h [4] [ng/g] | concentration at 4 h [5] [ng/mL] | Kp at 4 h [6] | IC50 [8] [µM] | IC50 [9] [µM] | SMILES | other results
0.036 | 2.46 | 102 | 1870 | 6.7 | 402 | – | – | CCCCOc1nc(OCC2COC2)c(-c2ccc(S(C)(=O)=O)cc2)cc1CO | Ratio IC50 [7]: 70
– | – | – | – | – | – | > 50 | – | CCCCOc1nc(OCC(C)(C)O)c(-c2ccc(S(C)(=O)=O)cc2)cc1C(=O)O | –
0.54 | > 50 | 55.4 | 478 | 28.7 | 16.5 | – | – | CCCCOc1nc(OCC(C)(C)O)c(-c2ccc(S(C)(=O)=O)cc2)cc1COCCO | –
1.21 | > 50 | 58.8 | 85.8 | 35.8 | 2.5 | – | – | CCCCOc1nc(OCC(C)(C)O)c(-c2ccc(S(C)(=O)=O)cc2)cc1C(C)(C)O | –
2.34 | 7.69 | 48.2 | 2810 | 22.8 | 134 | – | – | CCCCOc1nc(OCC(C)(C)O)c(-c2ccc(S(C)(=O)=O)cc2)cc1C(C)O (centres undefined) | –
0.95 | > 50 | 65.6 | 51.6 | 21.8 | 2.5 | 3.24 | > 50 | CCc1cnc(OCC(C)(C)O)c(-c2ccc(S(C)(=O)=O)cc2)c1 | half-life [10]: 1.15 h; half-life [11]: 0.22 h; half-life [12]: 1.4 h; half-life [13]: 0.0533 h; Vd [14]: 1.35 L/kg; half-life [15]: 0.32 h; Tmax [16]: 0.25 h
1.32 | > 50 | 68.6 | 11900 | 7.7 | – | – | – | CCCCOc1nc(OCC2(O)COC2)c(-c2ccc(S(C)(=O)=O)cc2)cc1CO | Ratio [6]: 1596
> 50 | > 50 | – | – | – | – | 17.1 | > 50 | COc1nc(OCC(C)(C)O)c(-c2ccc(S(C)(=O)=O)cc2)cc1CO | –
0.037 | 7.23 | 100 | 5390 | 9.9 | 545 | 0.12 | > 50 | CCCCOc1nc(OCC2(O)CCC2)c(-c2ccc(S(C)(=O)=O)cc2)cc1CO | Ki [27]: 0.003 µM; IC50 [28]: 0.146 µM; IC50 [24]: > 60 µM; fraction unbound [17]: 0.005; fraction unbound [18]: 0.055; solubility thermodynamic [19]: 56.1 µM (≈ 24.4 µg/mL); concentration at 4 h [20]: 82.4 ng/mL; Activity [21]: 61.2%; Ratio IC50 [29]: > 200; T1/2 [25]: 39 h; Kp at 4 h [26]: 69.9
> 50 | > 50 | – | – | – | – | 4.1 | > 50 | CC(C)Oc1nc(OCC(C)(C)O)c(-c2ccc(S(C)(=O)=O)cc2)cc1CO | –
